Reference: patent US7659277B2, “Ubiquitin ligase inhibitors and methods related thereto” (Proteologies, Ltd., priority 2003, dated 2010)
Read-outs that look alike come from different tables or passages of the source.

How the values were obtained:
POSH = target: T1, POSH (Homo sapiens, UniProt Q7Z6J0); experiment: IC50 assay procedure: GST-POSH auto-ubiquitination, homogeneous time-resolved fluorescence (Ub-cryptate / anti-GST XL665); type: biochemical; conditions: ubiquitin ligase activity of POSH; GST-POSH 33 nM, 30 min preincubation
T1 construct: GST-POSH lot NB81/p.118 3.6 mg/ml; fused on or other part: GST tag, used for detection with anti-GST XL665
T1 sequence (Q7Z6J0 1-269 limits assumed): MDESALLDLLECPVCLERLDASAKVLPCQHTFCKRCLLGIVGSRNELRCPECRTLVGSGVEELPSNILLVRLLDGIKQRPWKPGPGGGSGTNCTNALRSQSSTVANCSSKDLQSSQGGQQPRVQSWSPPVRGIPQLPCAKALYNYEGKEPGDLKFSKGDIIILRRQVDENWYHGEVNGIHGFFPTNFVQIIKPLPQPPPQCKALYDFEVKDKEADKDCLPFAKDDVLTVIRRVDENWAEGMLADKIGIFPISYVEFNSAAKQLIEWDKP
From the text: In certain preferred embodiments, agents that inhibit (or promote) the ubiquitin ligase activity of a ubiquitin ligase, such as POSH, may be identified using a homogenous time resolved fluorescence assay. Such an assay may employ a GST fused to the RING subunit of a ubiquitin ligase (e.g. POSH). Two flurophore-conjugated detection reagents are also used: anti-GSTXL665 and europium cryptate labeled ubiqutin. The ubiqutination of the ubiquitin ligase by ubiqutin cryptate and binding of the anti-GST tagged XL665 brings the fluorophores into close proximity allowing FRET reaction to occur. Accordingly, FRET serves as a measurement of ubiquitination of the ubiquitin ligase. An enzymatic system may be set up to provide activated ubiquitin, e.g., by providing ubiquitin, an E1 and an E2. Compounds that will not allow the FRET reaction are considered to be inhibitors.
Step 3: establish IC 50 value measurements.
Experimental Protocols: 1. HTS Screening Assay Procedure • Microplates 10109D to 10114D compounds at 1 mM. • (Controls in column 1). • All compounds were perchase from ChemBridge corporation: ChemBridge corporation 16981 Via Tazon, Suite G San Diego, Calif. 92127 a. Microplates Labeling • Put labels to 6 PS U-bottom clear microplate. • Put labels to 18 black microplates (triplicats). b. Microplates Preparation • Put 100 μl GST-POSH at 33 nM in wells of the clear PS U-bottom microplates (exept wells A1-D1). • Negative control: place 100 μl dH2O in wells A1-D1. • (Positive control: place 100 μl GST-POSH at 33 nM in wells E1-H1). • Put 8 μl enzymes solution ×4 to black microplates (column 1 to 11). c. Incubation of E3 with Compounds • Transfer 5 μl of compounds (at 1 mM) to the microplates containing 100 μl GST-POSH. • Add 5 μl of DMSO to controls column 1. • Incubation 30 minutes at RT. d. Enzymatic (Ubiquitination) and Final Steps • Distribution of (triplicate) 3×23 μl incubated compounds into 3 black microplates containing enzymatic solution (on splitting apparatus). • Incubation 30 minutes at 37° C. • Addition of 8 μl EDTA 0.5 M. • Incubation 15 (at least) minutes at RT. • Addition of 30 μl GST XL 665 in reconstitution buffer. • Incubation 45 (at least) minutes at RT. • Reading fluorescence. • Record results in computer. • Put sealing foil back on original and diluted microplates and keep at −70° C. • Always the plates must be closed with lids during each step. 2. […] Microplates Labeling • Put labels to 4 clear PP clear microplate (18.2 μM, 9.1 uM, 1.82 uM, 910 nM,). • Put labels to 5 clear PS U-bottom clear microplate 4.44 μM, 909, 444, 91 and 44 nM) • Put labels to 15 black microplates (triplicates). f. Original Microplate Dilutions • Put DMSO 40 μl to (18.2 μM, 1.82 uM plates) and 20 ul to (9.1 uM, 910 nM plates. • Mix by pipetation the original microplate (3× up and down 45 μl). • Transfer 10 μl of compounds from the original microplate (at 91 μM) to the next microplate (=18.2 μM) on splitting apparatus. • Mix by pipetation the 18.2 uM microplate (3× up and down 45 μl). • Transfer 20 μl of compounds from the 18.2 uM microplate to the next microplate (=9.1 μM) on splitting apparatus. • Mix by pipetation the 9.1 uM microplate (3× up and down 45 μl). • Transfer 10 μl of compounds from the 9.1 uM microplate to the next microplate (=1.82 μM) on splitting apparatus. • Mix by pipetation the 1.82 uM microplate (3× up and down 45 μl). • Transfer 20 μl of compounds from the 1.82 uM microplate to the next microplate (=910 nM) on splitting apparatus • Mix by pipetation. g. Microplates Preparation • Put 123 μl GST-POSH at 33 nM in wells of the 5 clear PS U-bottom clear microplates. • Positive control: place 123 μl GST-POSH at 33 nM in well A12-h12 13 μl DMSO. • Negative control: place 123 μl dH2O in well B1 and 13 μl DMSO. • Put 8 μl enzymes solution ×4 to 15 black microplates. • Controls: put 8 μl enzymes solution ×4 to wells A1 to F1. h. […]

Hmdm2 = Hmdm2 (Homo sapiens, UniProt Q00987); experiment: Selectivity (% A in 1 μM), ubiquitin ligase activity of Hmdm2; type: biochemical; conditions: read-out: Selectivity (% A* in 1 μM) Hmdm2
Chain of Hmdm2 (Q00987 whole entry): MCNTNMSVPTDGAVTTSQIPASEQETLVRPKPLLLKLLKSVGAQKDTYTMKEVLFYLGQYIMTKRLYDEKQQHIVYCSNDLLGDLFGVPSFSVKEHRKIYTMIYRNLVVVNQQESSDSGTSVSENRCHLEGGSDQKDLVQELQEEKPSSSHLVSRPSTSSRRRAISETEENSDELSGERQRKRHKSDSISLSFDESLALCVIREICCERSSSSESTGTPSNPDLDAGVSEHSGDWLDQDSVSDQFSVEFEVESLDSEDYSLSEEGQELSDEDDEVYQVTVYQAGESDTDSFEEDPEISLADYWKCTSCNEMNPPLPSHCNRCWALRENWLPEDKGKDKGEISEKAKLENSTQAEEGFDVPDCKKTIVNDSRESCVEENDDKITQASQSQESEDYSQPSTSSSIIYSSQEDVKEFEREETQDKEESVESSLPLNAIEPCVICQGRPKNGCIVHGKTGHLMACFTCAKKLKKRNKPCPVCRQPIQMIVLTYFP

[1] = % activity at 1 μM compound, control is related to 100% activity, HTS protocol

Structure (SMILES)	IC50 (POSH) [µM]	remaining activity at 1 µM (Hmdm2; [1]) [%]	remaining activity at 1 µM (Hmdm2) [%]
Oc1c(Br)cc(Br)cc1/C=N/c1cccc2nsnc12 [Compound 112]	0.7	113	–
N=C1NC(=O)/C(=C\c2ccc(-c3ccc(I)cc3)o2)S1 [Compound 29]	0.7	–	104
Oc1ccc2ccccc2c1/C=N/c1ncc(Br)cc1Br [Compound 66]	0.9	120	–
O=C1NC(=O)N(c2ccc(Br)cc2)C(=O)/C1=C/c1ccc(O)cc1 [Compound 5]	0.3	61	–
O=c1nc(C(F)(F)F)cc(/C=C/c2ccc(-c3ccc(Br)cc3)o2)[nH]1 [Compound 39]	1	108	–
CCOC(=O)c1c(/N=C/c2cc(Br)ccc2O)sc2c1CCCC2 [Compound 68]	1	110	–
O=C1C=CC(=O)N1c1cc(Cl)cc(Cl)c1 [Compound 23]	0.2	107	–
O=[N+]([O-])c1ccc(Cl)cc1CN1CCN(CCO)CC1 [Compound 82]	0.3	120	–
O=C1/C(=C\c2cccc([N+](=O)[O-])c2)Sc2ccccc21 [Compound 52]	1.3	107	–
COc1ccc(/C=C/C(=O)C2C(=O)CCC2=O)cc1OC [Compound 113]	0.4	101	–
O=C1NC(=O)/C(=C\c2ccc(-c3ccc(F)cc3)o2)S1 [Compound 108]	0.9	108	–
COc1ccc(N2C(=O)NC(=O)/C(=C\c3ccc(Cl)cc3)C2=O)cc1 [Compound 7]	1	101	–
Cc1ccc2nsnc2c1/N=C/c1c(O)ccc2ccccc12 [Compound 53]	0.5	–	125
N/N=C\c1ccc(-c2cccs2)s1 [Compound 37]	1	107	–
O=c1nc(-c2ccc(Br)cc2)cc(-c2ccc([N+](=O)[O-])cc2)[nH]1 [Compound 84]	0.3	–	102
Cc1ccc(/C=N/c2ccc(Cl)cc2)o1 [Compound 74]	1	107	–
COC(=O)c1ccc(N2C(=O)c3cccc(N)c3C2=O)cc1 [Compound 21]	0.8	80	–
O=C1NC(=S)N(c2ccccc2)C(=O)/C1=C\c1c(Cl)cccc1Cl [Compound 6]	0.8	129	–
O=C1C=CC(=O)N1c1ccccc1Cl [Compound 18]	0.7	–	101
Cc1ccc(/N=C/c2cccc(O)c2O)cc1C [Compound 56]	0.3	–	73
O=C1/C(=C\c2ccc(Cl)c([N+](=O)[O-])c2)Sc2ccccc21 [Compound 50]	0.1	98	–
O=C1\C(=C/C=C/C=C/Nc2ccccc2)SC(=S)N1c1ccccc1 [Compound 24]	1	69	–
COc1ccc(N2C(=O)NC(=O)/C(=C\C=C\c3ccccc3)C2=O)cc1 [Compound 8]	0.5	–	78
